In US20260191803A1, “SYSTEM AND METHOD FOR THE TREATMENT OF TELOGEN EFFLUVIUM AND CHEMOTHERAPY INDUCED ALOPECIA” (Follea International, priority 2025, published 2026):

Tested on: hair shedding
Assay: Example 5: hair shedding, hairs removed with brush after 10% phenylephrine or placebo
Format: in vivo, human
Conditions: average of 15 patients; versus placebo
Source text: Patients: Fifteen female subjects, ages 18-40, were included in the study. Subjects were recruited based on telogen effluvium diagnosis. Subjects with uncontrolled hypertension, that were pregnant or breastfeeding, had been diagnosed with pattern hair loss or with other hair loss in conjunction with female pattern hair loss were excluded from the study.
Hair Shedding: To measure hair shedding, a 4-day protocol was designed. On the first day patients were instructed to wash their hair and use styling products and procedures as they normally would. On the second day, patients were instructed not to wash their hair and to apply 0.5 mL of a placebo solution, containing a vehicle only, on the frontal area of the scalp in an 8×10 cm2 target area. Patients were instructed to wait 45 minutes, after which, they brushed their hair 20 times from the front of the scalp to the bottom of head using a new brush. After the procedure, the brushes were sealed in a plastic bag. On day three, patients were instructed to wash their hair and use styling products and procedures as they normally would. […] After each clinical procedure, the investigator counted the hairs collected on each brush. A new brush was used for each procedure.

**Q.** With CNC[C@H](O)c1cccc(O)c1 [phenylephrine] as the molecule, how does the “Average reduction in hair loss” value read?
**A.** approximately 42%
